Data from patent US8551981B2, “Furo[3,2-d]pyrimidine compounds” (AbbVie Inc., priority 2010, dated 2013).

System: Fcγ receptor signaling
Experiment: Reverse Passive Arthus model
Format: in vivo
Conditions: Rattus norvegicus, single dose 10 mg/kg
Procedure: Acute in vivo measurement of Fcγ receptor signaling inhibition of the compounds is measured using the:
Reverse Passive Arthus Model
On day 0 OVA was made up at a concentration of 17 mg/mL, in PBS by rocking gently until a solution was formed. 2% Evans Blue solution (Sigma Aldrich, cat# E2129) was then added to double the volume for a final concentration of 8.5 mg/mL of OVA and 1% Evans Blue dye. Anti-OVA antibody (Abazyme), stock concentration 10 mg/mL, was thawed and a 4 mg/mL solution was made with PBS. Compounds were made up in 0.5% HPMC with 0.02% Tween 80, and vortexed for about 15 seconds followed by homogenization for a minimum of about 2 min at 28,000 RPM until there was a fine particulate suspension with no clumps of compound. Rats were weighed and dosed with compound at a pre-determined time based on compound Tmax determined in pharmacokinetic studies. Animals were then placed under general anesthesia with a 5% isoflourane and oxygen mixture and shaved. Using a 0.5 cc insulin syringe two sites were injected i.d., 1 site with 100 μL of 4.0 mg/mL of anti-OVA antibody, and 1 site with 100 μL of sterile PBS. Each injection site was circled with a permanent marker to mark the site. Immediately following i.d. injections, animals were injected with 200 μL of the OVA (10 mg/kg)/1% Evans Blue mixture, i.v., using a 0.5 cc insulin syringe. About 4 h post injection animals were euthanized, bled via cardiac puncture and blood was put into plasma separation tubes. Blood samples were stored on ice until centrifugation (within about 2 h of collection). Each injection site was removed with a disposable biopsy punch (Acuderm Acu-Punch Disposable 12 mm), cut into four pieces and placed in a pre-labeled 2 mL eppendorf tube. One mL of DMF (99%) was added to each biopsy tube and they were placed in a heat block at about 50° C. for about 24 h. After incubation, 100 μL of each sample was transferred to a 96 well flat bottom plate and read at 620 nm on a plate reader using the Softmax software. Background was removed by subtracting the OD from the PBS injected site from the OD of the anti-OVA injected site for each individual animal. Plasma samples were spun down in a microcentrifuge (Eppendorf 5415R) for about 5 min at 16.1 rcf. 200 μL of plasma was placed in a 1.7 mL eppendorf tube for drug level measurements and tubes were stored at about −80° C. until evaluation.

| Compound | inhibition in vivo at 10 mg/kg |
| --- | --- |
| Clc1cc(Nc2nc(NC3CCC3)c3occc3n2)ccc1N1CCOCC1 [B.5.2] | 55% |
| Cn1ncc2cc(Nc3nc(NC4CC4)c4occc4n3)ccc21 [B.5.8] | 49% |
| FC(F)(F)CNc1nc(Nc2ccc(N3CCOCC3)c(Cl)c2)nc2ccoc12 [B.5.13] | 17% |
| O=C1Nc2cc(Nc3nc(NC4CC4)c4occc4n3)ccc2OC1(F)F [B.5.40] | 3% |
| CC1(C)Cc2ccc(Nc3nc(NC4CC4)c4occc4n3)cc2NC1=O [B.5.41] | 42% |
| CC(C)(C#N)c1ccc(Nc2nc(NC3CC3)c3occc3n2)cc1 [B.5.42] | 27% |
| O=c1[nH]c2cc(Nc3nc(NC4CC4)c4occc4n3)ccc2cc1CO [B.5.50] | 0% |
| O=c1ccc2ccc(Nc3nc(NC4CC4)c4occc4n3)cc2o1 [B.5.52] | 0% |
| O=C1CCCc2cc(Nc3nc(NC4CC4)c4occc4n3)ccc2N1 [B.5.56] | 49% |
| CC1(C)C(=O)Nc2cc(Nc3nc(N4CCC(CNCC(F)F)CC4)c4occc4n3)ccc21 [B.5.60] | 10% |
| CC1(C)C(=O)Nc2cc(Nc3nc(N[C@@H]4[C@H](C(N)=O)[C@H]5C=C[C@@H]4C5)c4occc4n3)ccc21 [B.5.61] | 1% |
| CC1(C)Oc2ccc(Nc3nc(Nc4ccc5c(c4)NC(=O)C(C)(C)O5)c4occc4n3)cc2NC1=O [B.5.62] | 16% |
| CC1(C)Oc2ccc(Nc3nc(N4CCC(CNCCS(C)(=O)=O)CC4)c4occc4n3)cc2NC1=O [B.5.65] | 9% |
| CC1(C)C(=O)Nc2cc(Nc3nc(N4CCC(CNCCS(C)(=O)=O)CC4)c4occc4n3)ccc21 [B.5.68] | 1% |
| CC1(C)C(=O)Nc2cc(Nc3nc(N4CCC(CNCCF)CC4)c4occc4n3)ccc21 [B.5.77] | 20% |
| CC(C)CNc1nc(Nc2ccc3c(c2)NC(=O)C3(C)C)nc2ccoc12 [B.5.80] | 46% |
| CCCNc1nc(Nc2ccc3c(c2)NC(=O)C3(C)C)nc2ccoc12 [B.5.81] | 16% |
| O=C1COc2ccc(Nc3nc(N4CCC(CNCC(F)F)CC4)c4occc4n3)cc2N1 [B.5.84] | 38% |
| FC(F)CNCC1CCN(c2nc(Nc3ccc(N4CCOCC4)c(Cl)c3)nc3ccoc23)CC1 [B.5.85] | 52% |
| Cc1cc2ccc(Nc3nc(NC4CC4)c4occc4n3)cc2[nH]c1=O [B.5.99] | 16% |

| Compound | inhibition in vivo at 10 mg/kg |
| --- | --- |
| CC1(C)C(=O)Nc2cc(Nc3nc(NC4CCC4)c4occc4n3)ccc21 [B.5.108] | 56% |
| CNCC1CCN(c2nc(Nc3ccc(N4CCN(C(C)=O)CC4)cc3)nc3ccoc23)CC1 [C.1.2] | -17% |
| CC(=O)N(C)c1ccc(Nc2nc(N3CCC(CN)CC3)c3occc3n2)cc1 [C.1.7] | 22% |
| CCCC(=O)Nc1ccc(Nc2nc(N3CCC(CN)CC3)c3occc3n2)cc1 [C.1.8] | 0% |
| CNCC1CCN(c2nc(Nc3ccc4cn[nH]c4c3)nc3ccoc23)CC1 [C.1.23] | -15% |
| Cc1n[nH]c2cc(Nc3nc(N4CCCC(N)CC4)c4occc4n3)ccc12 (stereo not shown) [C.1.29] | -5% |
| Cc1n[nH]c2cc(Nc3nc(N4CCC(C)(CN)CC4)c4occc4n3)ccc12 [C.1.31] | 0% |
| CC1(CN)CCN(c2nc(Nc3ccc4c(c3)NC(=O)C4(C)C)nc3ccoc23)CC1 [C.1.32] | 8% |
| CC1(CN)CCN(c2nc(Nc3ccc4c(c3)NC(=O)C(C)(C)O4)nc3ccoc23)CC1 [C.1.33] | 30% |
| CC1(C)Oc2ccc(Nc3nc(N4CCC5(CCCNC5)C4)c4occc4n3)cc2NC1=O (stereo not shown) [C.1.36] | -31% |
| CC1(C)C(=O)Nc2cc(Nc3nc(N4CCC5(CCCNC5)CC4)c4occc4n3)ccc21 [C.1.37] | -5% |
| COc1cc(Nc2nc(N3CCC4(CCCNC4)CC3)c3occc3n2)ccc1N1CCOCC1 [C.1.39] | 44% |
| Cn1ncc2cc(Nc3nc(N4CCC5(CCNC5)CC4)c4occc4n3)ccc21 [C.1.40] | 40% |
| Clc1cc(Nc2nc(N3CCC4(CCCNC4)CC3)c3occc3n2)ccc1N1CCOCC1 [C.1.41] | 40% |
| Cn1ncc2cc(Nc3nc(N4CCC5(CCCNC5)CC4)c4occc4n3)ccc21 [C.1.43] | 56% |
| Clc1cc(Nc2nc(N3CCC4(CCNC4)CC3)c3occc3n2)ccc1N1CCOCC1 [C.1.44] | 54% |
| CNCC1CCN(c2nc(Nc3ccc4c(C)n[nH]c4c3)nc3ccoc23)CC1 [C.1.48] | 1% |
| CNCC1CCN(c2nc(Nc3ccc4c(cnn4C)c3)nc3ccoc23)CC1 [C.1.49] | -20% |
| CNCC1CCN(c2nc(Nc3ccc4c(c3)NC(=O)C4(C)C)nc3ccoc23)CC1 [C.1.51] | -7% |
| Cc1n[nH]c2cc(Nc3nc(N[C@@H]4[C@H](C(N)=O)[C@H]5C=C[C@@H]4C5)c4occc4n3)ccc12 [C.1.52] | 8% |

| Compound | inhibition in vivo at 10 mg/kg |
| --- | --- |
| CNCC1CCN(c2nc(Nc3ccc(C(C)(C)C#N)cc3)nc3ccoc23)CC1 [C.1.57] | 12% |
| CC1(C)Oc2ccc(Nc3nc(N4CCC5(CCNC5)CC4)c4occc4n3)cc2NC1=O [C.1.58] | -18% |
| CC1(C)Oc2ccc(Nc3nc(N4CCC5(CCCNC5)CC4)c4occc4n3)cc2NC1=O [C.1.59] | 20% |
| Cc1n[nH]c2cc(Nc3nc(N4CCC(CNCCS(C)(=O)=O)CC4)c4occc4n3)ccc12 [C.1.60] | 24% |
| NCC1CCN(c2nc(Nc3ccc4c(c3)NC(=O)CC4)nc3ccoc23)CC1 [C.1.61] | 20% |
| CC(N)C1CCN(c2nc(Nc3ccc4c(c3)NC(=O)C(C)(C)O4)nc3ccoc23)CC1 (stereo not shown) [C.1.62] | -6% |
| CNCC1CCN(c2nc(Nc3ccc4c(c3)NC(=O)C(C)(C)S4)nc3ccoc23)CC1 [C.1.71] | 85% |
| O=C(NC1CC1)c1n[nH]c2cc(Nc3nc(NC4CC4)c4occc4n3)ccc12 [E.2.1, N-Cyclopropyl-6-(4-(cyclopropylamino)furo[3,2-d]pyrimidin-2-ylamino)-1H-indazole-3-carboxamide] | -1% |
| Cc1n[nH]c2cc(Nc3nc(NC4CC4)c4occc4n3)ccc12 [Example #3, N^4-Cyclopropyl-N^2-(3-methyl-1H-indazol-6-yl)furo[3,2-d]pyrimidine-2,4-diamine] | 75% |
| CC1Cc2ccc(Nc3nc(NC4CC4)c4occc4n3)cc2NC1=O (stereo not shown) [Example #6, 7-(4-(Cyclopropylamino)furo[3,2-d]pyrimidin-2-ylamino)-3-methyl-3,4-dihydroquinolin-2(1H)-one] | 59% |
| O=C1CCc2ccc(Nc3nc(NC4CC4)c4occc4n3)cc2N1 [Example #7, 7-(4-(Cyclopropylamino)furo[3,2-d]pyrimidin-2-ylamino)-3,4-dihydroquinolin-2(1H)-one] | 73% |
| CC1(C)C(=O)Nc2cc(Nc3nc(NC4CC4)c4occc4n3)ccc21 [Example #11, 6-(4-(Cyclopropylamino)furo[3,2-d]pyrimidin-2-ylamino)-3,3-dimethylindolin-2-one] | 65% |
| CC1(CN)CCN(c2nc(Nc3ccc4cn[nH]c4c3)nc3ccoc23)CC1 [Example #12, 4-(4-(Aminomethyl)-4-methylpiperidin-1-yl)-N-(1H-indazol-6-yl)furo[3,2-d]pyrimidin-2-amine] | 8% |
| FC(F)(F)CNc1nc(Nc2ccc3cn[nH]c3c2)nc2ccoc12 [Example #13, N^2-(1H-Indazol-6-yl)-N^4-(2,2,2-trifluoroethyl)furo[3,2-d]pyrimidine-2,4-diamine] | 70% |
| c1cc2nc(Nc3ccc4cn[nH]c4c3)nc(NC3CC3)c2o1 [Example #15, N^4-Cyclopropyl-N^2-(1H-indazol-6-yl)furo[3,2-d]pyrimidine-2,4-diamine] | 45% |
| CC1(C)C(=O)Nc2cc(Nc3nc(NCC(F)F)c4occc4n3)ccc21 [Example #16, 6-(4-(2,2-Difluoroethylamino)furo[3,2-d]pyrimidin-2-ylamino)-3,3-dimethylindolin-2-one] | 63% |
| Cc1cc(Nc2nc(NC3CC3)c3occc3n2)cc2[nH]ncc12 [Example #AC.1, N^4-cyclopropyl-N^2-(4-methyl-1H-indazol-6-yl)furo[3,2-d]pyrimidine-2,4-diamine] | 43% |
| Cc1n[nH]c2cc(Nc3nc(N4CCC(O)(CN)CC4)c4occc4n3)ccc12 [Example #AM.1, 4-(Aminomethyl)-1-(2-(3-methyl-1H-indazol-6-ylamino)furo[3,2-d]pyrimidin-yl)piperidin-4-ol] | 3% |
